Test results as given in patent US12643887B2, “Heterocyclic derivatives with cardiomyocyte proliferation activity for treatment of heart diseases” (Tongji University, priority 2019, dated 2026).
Where two headings read alike, the source gives them in different places.

Assays:
human HIPK1 = target: T1, human HIPK1 (Homo sapiens, UniProt Q86Z02); experiment: HIPK1 enzyme assay (ADP-Glo); type: biochemical
T1 construct: Recombinant human HIPK1 (156-555); GST (N); purchased SignalChem H03-11G; host or cells: Sf9 insect cells
In short: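 Recombinant GST-tagged HIPK1 (156-555, Sf9), 4 nM, preincubated 30 min at 25° C with compound in Tris pH 7.5/MgCl2/BSA/DTT, then reacted 90 min with 0.05 mg/ml MBP and 5 μM ATP. ADP formed read by ADP-Glo luminescence; IC50 from four-parameter logistic fit of % inhibition versus Max/Min controls.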

human GSK3 beta = target: T2, human GSK3 beta (Homo sapiens, UniProt P49841); experiment: GSK3 beta enzyme assay (ADP-Glo); type: biochemical; settings: ATP 25 μM, read-out: GSK3b IC50
T2 construct: Recombinant full-length human GSK3 beta (expressed in Sf9 insect cells with an N-terminal His tag); His (N); purchased SignalChem G09-10H; host or cells: Sf9 insect cells
In short: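 Full-length His-tagged human GSK3β from Sf9 cells (4 nM) preincubated 30 min at 25 °C with inhibitor in Tris pH 7.5/MgCl2/BSA/DTT, then reacted 60 min at 25 °C with 13 μM substrate peptide and 25 μM ATP. ADP measured by ADP-Glo luminescence; IC50 from four-parameter logistic fit of % inhibition.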

[1] = ADP-Glo, ATP 5 μM, read-out: HIPK1 IC50

T1 sequence (Q86Z02 156-555): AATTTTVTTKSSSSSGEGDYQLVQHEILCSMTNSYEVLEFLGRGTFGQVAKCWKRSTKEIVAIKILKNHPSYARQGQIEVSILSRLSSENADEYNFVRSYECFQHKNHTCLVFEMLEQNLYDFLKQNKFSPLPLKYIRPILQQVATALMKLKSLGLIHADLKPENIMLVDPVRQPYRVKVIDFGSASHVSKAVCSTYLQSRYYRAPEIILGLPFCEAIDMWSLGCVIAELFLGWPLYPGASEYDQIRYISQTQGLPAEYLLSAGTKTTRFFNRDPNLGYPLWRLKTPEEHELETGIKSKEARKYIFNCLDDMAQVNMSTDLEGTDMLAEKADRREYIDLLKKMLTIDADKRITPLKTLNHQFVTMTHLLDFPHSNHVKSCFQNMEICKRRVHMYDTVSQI
T2 sequence (P49841 whole entry): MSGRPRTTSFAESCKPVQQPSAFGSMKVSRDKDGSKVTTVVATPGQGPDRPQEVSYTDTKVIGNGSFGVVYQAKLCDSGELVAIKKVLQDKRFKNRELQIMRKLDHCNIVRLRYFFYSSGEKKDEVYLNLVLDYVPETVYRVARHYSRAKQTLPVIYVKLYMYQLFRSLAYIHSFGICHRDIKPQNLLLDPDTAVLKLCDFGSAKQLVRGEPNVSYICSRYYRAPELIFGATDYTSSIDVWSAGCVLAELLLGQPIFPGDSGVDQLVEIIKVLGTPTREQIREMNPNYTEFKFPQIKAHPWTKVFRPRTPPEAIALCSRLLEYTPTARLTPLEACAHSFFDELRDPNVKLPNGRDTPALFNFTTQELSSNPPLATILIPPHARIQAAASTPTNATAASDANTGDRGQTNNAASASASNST

| SMILES | IC50 (human HIPK1; [1]) | IC50 (human HIPK1) | IC50 (human GSK3 beta) |
| --- | --- | --- | --- |
| CCN(C1=N/C(=C\c2ccc3c(c2)OCO3)C(=O)N1)c1ccccc1 [Example 4, (Z)-5-(benzo[d][1,3]dioxol-5-ylmethylene)-2-(ethyl(phenyl)amino)-3,5-dihydro-4H-imidazol-4-one] | > 10 µM | – | – |
| CC(=O)N(C1=N/C(=C\c2ccc3c(c2)OCO3)C(=O)N1)c1ccccc1 [Example 5, (Z)—N-(4-(benzo[d][1,3]dioxol-5-ylmethylene)-5-oxo-4,5-dihydro-1H-imidazol-2-yl)-N-phenylacetamide] | – | 0.1 to 1 µM | – |
| CN(C1=N/C(=C\c2ccc3ncccc3c2)C(=O)N1)c1ccc2ncsc2c1 [Example 85, (Z)-2-(benzo[d]thiazol-6-yl(methyl)amino)-5-(quinolin-6-ylmethylene)-3,5-dihydro-4H-imidazol-4-one] | > 10 µM | – | 1 to 10 µM |
| CN(C1=N/C(=C\c2ccc3ncsc3c2)C(=O)N1)c1ccc2c(c1)ncn2C [Example 86, (Z)-5-(benzo[d]thiazol-6-ylmethylene)-2-(methyl(1-methyl-1H-benzo[d]imidazol-5-yl)amino)-3,5-dihydro-4H-imidazol-4-one] | 1 to 10 µM | – | 1 to 10 µM |
| CN(C1=N/C(=C\c2ccc3[nH]ccc3c2)C(=O)N1)c1ccc2ncsc2c1 [Example 87, (Z)-5-((1H-indol-5-yl)methylene)-2-(benzo[d]thiazol-6-yl(methyl)amino)-3,5-dihydro-4H-imidazol-4-one] | > 10 µM | – | > 10 µM |
| CN1C(=O)/C(=C/c2ccc3ncsc3c2)N=C1Nc1ccc2ncsc2c1 [Example 88, (Z)-2-(benzo[d]thiazol-6-ylamino)-5-(benzo[d]thiazol-6-ylmethylene)-3-methyl-3,5-dihydro-4H-imidazol-4-one] | > 10 µM | – | > 10 µM |
| COCCN(C1=N/C(=C\c2ccc3ncsc3c2)C(=O)N1)c1ccc2ncsc2c1 [Example 89, (Z)-2-(benzo[d]thiazol-6-yl(2-methoxyethyl)amino)-5-(benzo[d]thiazol-6-ylmethylene)-3,5-dihydro-4H-imidazol-4-one] | 1 to 10 µM | – | 1 to 10 µM |
| Cc1nc2ccc(NC3=N/C(=C\c4ccc5ncsc5c4)C(=O)N3)cc2s1 [Example 90, (Z)-5-(benzo[d]thiazol-6-ylmethylene)-2-((2-methylbenzo[d]thiazol-6-yl)amino)-3,5-dihydro-4H-imidazol-4-one] | > 10 µM | – | > 10 µM |
| CC(=O)N(C1=N/C(=C\c2ccc3ncsc3c2)C(=O)N1)c1ccc2ncsc2c1 [Example 91, (Z)—N-(benzo[d]thiazol-6-yl)-N-(4-(benzo[d]thiazol-6-ylmethylene)-5-oxo-4,5-dihydro-1H-imidazol-2-yl)acetamide] | 0.1 to 1 µM | – | > 10 µM |
| O=C1NC(Nc2ccc3ncsc3c2)=N/C1=C\c1cncs1 [Example 92, (Z)-2-(benzo[d]thiazol-6-ylamino)-5-(thiazol-5-ylmethylene)-3,5-dihydro-4H-imidazol-4-one] | 0.1 to 1 µM | – | 0.1 to 1 µM |
| Cn1cnc2ccc(NC3=N/C(=C\c4ccc5ncsc5c4)C(=O)N3)cc21 [Example 93, (Z)-5-(benzo[d]thiazol-6-ylmethylene)-2-((1-methyl-1H-benzo[d]imidazol-6-yl)amino)-3,5-dihydro-4H-imidazol-4-one] | 0.1 to 1 µM | – | 0.1 to 1 µM |
| O=C1NC(Nc2ccc3ncsc3c2)=N/C1=C\c1ccc2nccnc2c1 [Example 94, (Z)-2-(benzo[d]thiazol-6-ylamino)-5-(quinoxalin-6-ylmethylene)-3,5-dihydro-4H-imidazol-4-one] | > 10 µM | – | > 10 µM |
| O=C1NC(Nc2ccc3ncsc3c2)=N/C1=C\c1ccc2cn[nH]c2c1 [Example 95, (Z)-5-((1H-indazol-6-yl)methylene)-2-(benzo[d]thiazol-6-ylamino)-3,5-dihydro-4H-imidazol-4-one] | > 10 µM | – | > 10 µM |
| O=C1NC(=S)N/C1=C\c1ccc2sccc2c1 [Example 96, (Z)-5-(benzo[b]thiophen-5-ylmethylene)-2-thioxoimidazolidin-4-one] | > 10 µM | – | 1 to 10 µM |
| O=C1NC(Nc2ccc3nc[nH]c3c2)=N/C1=C\c1ccc2ncsc2c1 [Example 97, (Z)-2-((1H-benzo[d]imidazol-6-yl)amino)-5-(benzo[d]thiazol-6-ylmethylene)-3,5-dihydro-4H-imidazol-4-one] | 0.1 to 1 µM | – | 1 to 10 µM |
| Nc1ccc(NC2=N/C(=C\c3ccc4ncsc4c3)C(=O)N2)cc1 [Example 98, (Z)-2-((4-aminophenyl)amino)-5-(benzo[d]thiazol-6-ylmethylene)-3,5-dihydro-4H-imidazol-4-one] | 0.1 to 1 µM | – | 0.1 to 1 µM |
| O=C1NC(N(Cc2ccccc2)c2ccc3ncsc3c2)=N/C1=C\c1ccc2ncsc2c1 [Example 99, (Z)-2-(benzo[d]thiazol-6-yl(benzyl)amino)-5-(benzo[d]thiazol-6-ylmethylene)-3,5-dihydro-4H-imidazol-4-one] | > 10 µM | – | > 10 µM |
| CC(C)Nc1nc2ccc(NC3=N/C(=C\c4ccc5ncsc5c4)C(=O)N3)cc2s1 [Example 100, (Z)-5-(benzo[d]thiazol-6-ylmethylene)-2-((2-(isopropylamino)benzo[d]thiazol-6-yl)amino)-3,5-dihydro-4H-imidazol-4-one] | > 10 µM | – | 0.1 to 1 µM |
| O=C1NC(Nc2ccc3sccc3c2)=N/C1=C\c1ccc2ncsc2c1 [Example 101, (Z)-2-(benzo[b]thiophen-5-ylamino)-5-(benzo[d]thiazol-6-ylmethylene)-3,5-dihydro-4H-imidazol-4-one] | > 10 µM | – | > 10 µM |
